Series [1] has as its system CHO cells transfected with ABA-inducible luciferase constructs. The series is described as follows: ABA-inducible luciferase assay. Particulars: 10 μM (mixture 10 μM each), 24 hours. The format is cell-based.
Series [2] is described as follows: ABA-Fe reactivity and selectivity towards Fe^2+ (HPLC). The format is physicochemical. Particulars: 37° C., one hour. On the procedure:
ABA-Fe reactivity and selectivity towards Fe^2+: 100 μM ABA-Fe with 1 mM Fe^2+ (in 50% HEPES/DMSO buffer, pH=7.4), and 100 μM ABA-Fe with 1 mM Fe^3+ (in 50% HEPES/DMSO buffer, pH=7.4) were incubated at 37° C. for one hour before HPLC detection. The percentages for molecule cleavage were quantified by the peak area of ABA out of the total peak area.
(§1) HPLC chromatograms were acquired using an ULTIMATE 3000 LC System (Thermo Fisher Scientific, Waltham, Mass.) with ACCLAIM 120 Å, C18, 3 μm analytical (4.6×100 mm) column (Thermo Fisher Scientific, Waltham, Mass.). Chromatographic conditions: eluent A: 0.1% v/v TFA in water; eluent B: 0.1% v/v TFA in acetonitrile. ABA in ethanol or ABA-HP in DMSO was eluted at a flow rate of 0.750 ml/min monitored at a wavelength of 260 nm. 0-12 min (linear): 95% A, 5% B to 5% A, 95% B; 12-15 min: 5% A, 95% B; 15-17 min (linear): 5% A, 95% B to 95% A, 5% B. Generation of ABA was quantified by the peak area of ABA out of the total peak area.

Series [3] is described as follows: Chemical stability of ABA-Fe molecules (HPLC). Particulars: 100 μM, 50% HEPES/DMSO pH 7.4, 37° C., one hour. Type of series: physicochemical. On the procedure:
Chemical stability of ABA-Fe molecules: 100 μM ABA-Fe (in 50% HEPES/DMSO buffer, pH=7.4) was incubated at 37° C. for one hour before HPLC detection. The percentages for molecule cleavage were quantified by the peak area of ABA out of the total peak area.
as §1

Series [4] deals with HEK 293 EGFP reporter cells. Nature of the series: Cell stability of ABA-Fe molecules. The format is cell-based. Here is the method: Mammalian Cell Culture: HEK 293 EGFP reporter cells were cultured in Dulbecco's modified Eagle's medium (DMEM, GIBCO, Life Technologies, Carlsbad, Calif.) with 10% Fetal Bovine Serum (FBS, GIBCO, Life Technologies, Carlsbad, Calif.), 1× […] (100× from GIBCO, Life Technologies, Carlsbad, Calif.), and 1× Penicillin/Streptomycin (Pen/Strep, 100× from GIBCO, Life Technologies, Carlsbad, Calif.). Cells were plated with the starting concentration of 200,000 cells per well in a 24-well plate (Greiner Bio-One GmbH; Frickenhausen, Germany) for a day, and then were treated with either 10 μM of ABA-Fe and 20 μM of DFO, 10 μM of ABA-Fe only, or 10 μM of ABA-Fe and 100 μM of Fe^2+ aqueous solution.
Imagines for green fluorescence were taken for living cells every two hours after adding in those molecules by microscopy illumination system (Axio Observer; Carl Zeiss AG, Oberkochen, Germany). Each type of the experiment was carried out as duplex.

Excerpt for transfected cells: A concern of using UV-triggered reactions in cells is phototoxicity.

With `CC1=CC(=O)CC(C)(C)C1(O)/C=C/C(C)=C/C(=O)O` (single isomer, unassigned) [2-trans isomer], in series [1], the “induced luciferase expression (activity of ABA isomers)” value was “reduced activity”.

`CC1=CC(=O)CC(C)(C)[C@@]1(O)/C=C/C(C)=C\C(=O)ONC(C)c1ccccc1` (stereo partly drawn) [Compound 8]: the “selectivity towards Fe^2+ vs Fe^3+” value in series [2] (100 μM with 1 mM Fe^2+ or Fe^3+) was “exhibits selectivity”. In series [2] (100 μM with 1 mM Fe^2+), the “reactivity (cleavage) towards Fe^2+” value was “exhibits Fe^2+ reactivity”. In addition, the chemical stability result in series [3] is on record as “chemically stable”. In addition, the stability in cells result in series [4] is on record as “stable in cells”.

“dimethoxynitrosobenzaldehyde [DMNB-derived photoproduct]”: in the series with transfected cells, the toxicity result is reported as “does not cause observable toxicity”.

(Values after patent publication US10907219B2, “Compositions and methods for controlling cellular function” (STC.UNM, priority 2014, dated 2021).)
